Assay results from patent US10179770B2, “Quinolines derivatives as novel anticancer agents” (GENOSCIENCE PHARMA, priority 2013, dated 2019).

Assays:
[1] = system: A375 cell line; assay: Combination of XIX-3 and Zelboraf, Bliss independence model; assay type: cell-based, human; settings: XIX-3 associated with Zelboraf, 72 h
Protocol: The human melanoma cell lines A375 cultured in Dulbecco's modified Eagle's medium supplemented with 10% Fetal Bovine Serum and 1% Penicillin-Streptomycin and maintained at 37° C. with 5% CO2.
A375 cells were plated at 800 cells per well onto 96-well plates in 90 μL of media per well and were allowed to grow overnight before the assay. XIX-3 and Zelboraf, a compound used for treatment for BRAF V600E mutation-positive metastatic melanoma, were added at different concentrations (combinations of five concentrations of XIX-3 and six concentrations of Zelboraf) to each well, and cell cultures were incubated for 72 h. Vehicle (H2O) was used as a control, and all compounds were tested in a constant percentage of vehicle. Cell outgrowth was measured using a […] Aqueous One Solution Cell Proliferation Assay (Promega) and a TECAN Sunrise plate reader. […] The effects of drug-drug combinations are evaluated in the Bliss independence model (Prichard M. N. and Shipman C. Jr. Antivir. Res. 1990 (14) 181-205; Prichard, M. L. et al. Antimicrob Agents Chemother 1993 (37) 540-545). The theoretical additive effect is calculated from the dose-response curves of individual compounds by the equation: Z=X+Y(1−X) (7) Where: • Z represents the total inhibition produced by the combination of drugs X and Y. • X and Y represent the inhibition produced by drugs X and Y alone, respectively. […]

[2] = system: HT29 cells; assay: Combination study with standard chemotherapy agents, Combination Index (Chou and Talalay); assay type: cell-based, human; settings: preliminary results
Protocol: Anticancer drugs were tested around their EC50 in […] cell line, The general assay procedure is the same as described in example 53 for compound XIX-3. Loewe additivity model: The experimental data are analyzed by using CalcuSyn (Biosoft, Stapleford, UK), a computer program based on the method of Chou and Talalay. Briefly, the dose-effect curves for each drug or drug combination were converted to median-effect plots with CalcuSyn. Then, a combination index (CI) value for each experimental combination was calculated on the basis of the following equation: [formula] Where for n=2 (combination of 2 compounds): D1 and D2 are the doses of drug 1 and drug 2 that have x effect when each drug is used alone d1 and d2 are the doses of drug 1 and drug 2 that have the same x effect when they are used in combination. [table] [table]

## CCN(CC)C1CCN(C(C)c2cc(-c3ccccc3)nc3ccccc23)CC1.Cl.Cl (stereo not drawn) [XIX-3, 2-phenyl-4-{1-[4-(N,N-diethylamino)piperidin-1-yl]-eth-1-yl}quinoline dihydrochloride]
[1]
  Combination effect on cell viability (Bliss independence model): additive effect (between −20% to +20% indicates additive effect)
[2]; HT29 cells
  Combination effect with standard chemotherapy agents: Synergy Effect
[2]; XIX-3 at 18 μM in combination with well described anticancer drugs, HT-29
  Combination Index (CI): < 1
